Legend:
[1] = test system: 5/6 nephrectomy rat model; test: Functional and structural renal dysfunction in 5/6 nephrectomized rats; assay type: in vivo; conditions: 4 weeks; for End organ injury marker concentration in the urine: hFABP / End organ injury marker concentration in the urine: hFABP per creatinine: ELISA; for Kidney injury marker-1 [gene expression] / Lipocalin-2 [gene expression] / Osteopontin [gene expression]: renal cortex
From the text: (§1) B-3. Effects of Partial A1 Agonists on Renal and Cardiac Function in 5/6 Nephrectomized Rats (Example 1 for Chronic Kidney Disorder)
(§2) 5/6 nephrectomy in the rat, in which one kidney and the renal cortex of the second kidney are surgically removed (=5/6 of functional kidney tissue) is an established animal model for interstitial renal fibrosis and chronic renal insufficiency [C. Fleck et al., “Suitability of 5/6 nephrectomy (5/6NX) for the induction of interstitial renal fibrosis in rats Influence of sex, strain, and surgical procedure”, Exp. Tox. Pathology 2006, 57, 195-205]. The model is characterized by progressive proteinuria, disturbed tubular electrolyte transport, a reduced glomerular filtration rate, an increase in urinary output, interstitial fibrosis with reactively occurring lymphocyte infiltrates, glomerulosclerosis and tubular atrophy. The level of proteinuria is a specific index of the renal function prognosis: the higher the proteinuria, the greater is the functional and structural kidney injury and therefore progression of chronic to terminal renal insufficiency (uraemia). During monitoring of therapy, e.g. with the ACE inhibitor enalapril, the course of proteinuria provides information on the functional and structural response to the therapy and thus on the renal function prognosis. As a result of the renal insufficiency and accumulation of umemic toxins, in the animals there is secondary development of a umemic cardiomyopathy, depending on the severity associated with hypertension, increased heart rate, reduced parasympathetic tone, myocardial, left-ventricular hypertrophy and fibrosis, diastolic dysfunction and an increased prevalence of arrhythmias [Svilerova et al. 2010 Physiol Res 59: S81-S88).
(§3) Procedure: male Wistar:WU rats (210-250 g) from Charles River had the left kidney and the renal cortex of the right kidney removed (=SNX) in one session; sham-operated rats served as control group (=SOP). The following groups, each with 12 rats per group, were investigated:
(§4) Group 2 SNX+placebo (60 g glycerol+100 g water+969 g PEG-400)
(§5) Group 3 SNX+10 mg/kg body weight/day enalapril (reference therapy, in the drinking water)
(§6) Group 4 SNX+0.1 mg/kg body weight/day partial A1 agonist EXAMPLE 1, p.o. in placebo
(§7) Group 5 SNX+1.0 mg/kg body weight/day partial A1 agonist EXAMPLE 1, p.o. in placebo
(§8) Group 6 SNX+0.3 mg/kg body weight/day partial A1 agonist EXAMPLE 4, p.o. in placebo
(§9) Group 7 SNX+3.0 mg/kg body weight/day partial A1 agonist EXAMPLE 4, p.o. in placebo
(§10) Three weeks after 5/6 nephrectomy, the rats developed manifest proteinuria, from this time point the rats were treated for a further four weeks corresponding to the groups stated above. At the end of the protocol, the following samples were obtained/measurements were carried out: eight-hour urine collection with determination of the concentration of hFABP in the urine by ELISA (Rat/Mouse h-FABP ELISA, Hycultbiotech), as marker for end organ damage, invasive measurement of the isoprenaline-induced increase (cumulatively 12.5 ng-250 ng/kg isoprenaline, i.v.) in systolic and diastolic left ventricular function, and TaqMan analyses of renal injury markers in the renal cortex.

[2] = test system: 5/6 nephrectomy rat model; test: Left-ventricular diastolic dysfunction under isoprenaline infusion in 5/6 nephrectomized rats; assay type: in vivo; conditions: 4 weeks
From the text: as §1, §2, §3, §4, §5, §6, §7, §8, §9, §10

[3] = test system: unilaterally nephrectomized SHR; test: Functional and structural renal dysfunction in unilaterally nephrectomized spontaneously hypertensive rats; assay type: in vivo, rat; conditions: Group 5: SNX + 3.0 mg/kg body weight/day p.o., 4 weeks
From the text: (§11) B-4. Effects of Partial A1 Agonists on Renal and Cardiac Function in Unilaterally Nephrectomized and Spontaneously Hypertensive Rats (Example 2 for Chronic Kidney Disorders)
(§12) Unilaterally nephrectomized, spontaneously hypertensive rats (SHR) are an established animal model for investigating the development and progression of hypertensive damage of the glomeruli in the remaining kidney [H. Kinuno et al., “Effects of uninephrectomy on renal structural properties in spontaneously hypertensive rats”, Clin and Exp Pharmacol and Physiol 2005, 32, 173-178]. […] Furthermore, renal excretion of substances usually eliminated in the urine, such as creatinine and urea, is reduced and the electrolyte metabolism is disturbed, the latter being associated with volume retention.
(§13) Procedure: male SHR rats (180-220 g) from Taconic had the left kidney removed in one session (=UNX). Normotensive Wistar Kyoto rats (WKY) from Taconic served as control. The following groups, each with 12 rats per group, were investigated:
(§14) Group 2 UNX+placebo (60 g glycerol+100 g water+969 g PEG-400)
(§15) Group 3 UNX+10 mg/kg body weight/day enalapril (reference therapy, in the drinking water)
(§16) Group 4 SNX+1.0 mg/kg body weight/day partial A1 EXAMPLE 1, p.o. in placebo
(§17) Group 5 SNX+3.0 mg/kg body weight/day partial A1 EXAMPLE 4, p.o. in placebo
(§18) Three weeks after unilateral nephrectomy, the SHRs developed manifest hypertensive damage of the glomeruli in the remaining kidney, from this time point on the rats were treated for a further four weeks corresponding to the groups given above. At the end of the protocol, the following samples were obtained/measurements were carried out: eight-hour urine collection, invasive measurement of systolic and diastolic left ventricular function, and TaqMan analyses of renal injury markers in the renal cortex.

[4] = test system: unilaterally nephrectomized SHR; test: Functional and structural myocardial dysfunction in unilaterally nephrectomized spontaneously hypertensive rats; assay type: in vivo, rat; conditions: Group 5: SNX + 3.0 mg/kg body weight/day p.o., 4 weeks
From the text: as §11, §12, §13, §14, §15, §16, §17, §18

[5] = Group 6: SNX + 0.3 mg/kg body weight/day p.o.
[6] = Group 7: SNX + 3.0 mg/kg body weight/day p.o.

N#Cc1c(SCc2csc(-c3ccc(Cl)cc3)n2)nc(N2CCCC2)c(C#N)c1-c1ccc(OCCO)cc1 [EXAMPLE 4, 2-({[2-(4-Chlorophenyl)-1,3-thiazol-4-yl]methyl}sulphanyl)-4-[4-(2-hydroxyethoxy)phenyl]-6-(pyrrolidin-1-yl)pyridine-3,5-dicarbonitrile]
P-creatinine [1, 5]: 64 ± 1 µmol/L | P-urea [1, 5]: 11 ± 0.3 mmol/L | U-creatinine [1, 5]: 3.1 ± 0.2 μmol/ml urine/kg BW/h | U-protein [1, 5]: 1.70 ± 0.29 μmol/ml urine/kg BW/h | U-sodium [1, 5]: 19 ± 3 μmol/ml urine/kg BW/h | U-urea [1, 5]: 330 ± 25 μmol/ml urine/kg BW/h | Urine volume [1, 5]: 1.8 ± 0.1 ml/kg BW/h | End organ injury marker concentration in the urine: hFABP [1, 5]: 3125 ± 497 pg hFABP/ml urine/h | End organ injury marker concentration in the urine: hFABP per creatinine [1, 5]: 386 ± 57 pg hFABP/μmol creatinine | Kidney injury marker-1 [gene expression] [1, 5]: 68 ± 14 rel. expression | Lipocalin-2 [gene expression] [1, 5]: 340 ± 49 rel. expression | Osteopontin [gene expression] [1, 5]: 6882 ± 1240 rel. expression | P-creatinine [1, 6]: 63 ± 1 µmol/L | P-urea [1, 6]: 11 ± 0.3 mmol/L | U-creatinine [1, 6]: 2.7 ± 0.3 μmol/ml urine/kg BW/h | U-protein [1, 6]: 0.97 ± 0.12 μmol/ml urine/kg BW/h | U-sodium [1, 6]: 43 ± 5 μmol/ml urine/kg BW/h | U-urea [1, 6]: 281 ± 30 μmol/ml urine/kg BW/h | Urine volume [1, 6]: 1.8 ± 0.2 ml/kg BW/h | End organ injury marker concentration in the urine: hFABP [1, 6]: 1706 ± 249 pg hFABP/ml urine/h | End organ injury marker concentration in the urine: hFABP per creatinine [1, 6]: 218 ± 39 pg hFABP/μmol creatinine | Kidney injury marker-1 [gene expression] [1, 6]: 56 ± 18 rel. expression | Lipocalin-2 [gene expression] [1, 6]: 283 ± 45 rel. expression | Osteopontin [gene expression] [1, 6]: 6340 ± 1656 rel. expression | left-ventricular pressure decrease as a function of time ([2]; isoprenaline 0 ng/kg body weight, Group 6: SNX + 0.3 mg/kg body weight/day p.o.): 6518 ± 221 mmHg/s | left-ventricular pressure decrease as a function of time ([2]; isoprenaline 0 ng/kg body weight, Group 7: SNX + 3.0 mg/kg body weight/day p.o.): 6884 ± 383 mmHg/s | left-ventricular pressure decrease as a function of time ([2]; isoprenaline 12.5 ng/kg body weight, Group 6: SNX + 0.3 mg/kg body weight/day p.o.): 7733 ± 233 mmHg/s | left-ventricular pressure decrease as a function of time ([2]; isoprenaline 12.5 ng/kg body weight, Group 7: SNX + 3.0 mg/kg body weight/day p.o.): 8369 ± 395 mmHg/s | left-ventricular pressure decrease as a function of time ([2]; isoprenaline 25 ng/kg body weight, Group 6: SNX + 0.3 mg/kg body weight/day p.o.): 8001 ± 224 mmHg/s | left-ventricular pressure decrease as a function of time ([2]; isoprenaline 25 ng/kg body weight, Group 7: SNX + 3.0 mg/kg body weight/day p.o.): 8557 ± 396 mmHg/s | left-ventricular pressure decrease as a function of time ([2]; isoprenaline 50 ng/kg body weight, Group 6: SNX + 0.3 mg/kg body weight/day p.o.): 8763 ± 195 mmHg/s | left-ventricular pressure decrease as a function of time ([2]; isoprenaline 50 ng/kg body weight, Group 7: SNX + 3.0 mg/kg body weight/day p.o.): 9100 ± 341 mmHg/s | left-ventricular pressure decrease as a function of time ([2]; isoprenaline 100 ng/kg body weight, Group 6: SNX + 0.3 mg/kg body weight/day p.o.): 9621 ± 212 mmHg/s | left-ventricular pressure decrease as a function of time ([2]; isoprenaline 100 ng/kg body weight, Group 7: SNX + 3.0 mg/kg body weight/day p.o.): 10263 ± 294 mmHg/s | left-ventricular pressure decrease as a function of time ([2]; isoprenaline 250 ng/kg body weight, Group 6: SNX + 0.3 mg/kg body weight/day p.o.): 9968 ± 162 mmHg/s | left-ventricular pressure decrease as a function of time ([2]; isoprenaline 250 ng/kg body weight, Group 7: SNX + 3.0 mg/kg body weight/day p.o.): 10385 ± 352 mmHg/s | P-creatinine [3]: 58 ± 0.6 µmol/L | P-urea [3]: 8.7 ± 0.2 mmol/L | U-creatinine [3]: 3.4 ± 0.9 μmol/ml urine/kg BW/h | U-protein [3]: 0.96 ± 0.26 μmol/ml urine/kg BW/h | U-sodium [3]: 46 ± 11 μmol/ml urine/kg BW/h | U-urea [3]: 337 ± 89 μmol/ml urine/kg BW/h | Urine volume [3]: 1.8 ± 0.2 ml/kg BW/h | CYR61 [gene expression] ([3]; renal cortex): 274 ± 21 rel. expression | Lipocalin-2 [gene expression] ([3]; renal cortex): 119 ± 9 rel. expression | Diastolic blood pressure [4]: 144 ± 6 mmHg | Heart rate [4]: 326 ± 9 beats/min | Left ventricular hypertrophy (LVS/RV ratio, mg/mg) [4]: 4.5 ± 0.2 mg/mg | Left-ventricular end-diastolic pressure [4]: 10.22 ± 1.6 mmHg | Left-ventricular pressure [4]: 196 ± 5 mmHg | Pressure decrease over time [4]: −10680 ± 524 mmHg/s | Pressure increase over time [4]: 9419 ± 383 mmHg/s | Systolic blood pressure [4]: 205 ± 5 mmHg

— patent US20160311812A1, “ADENOSINE A1 AGONISTS AS MEDICAMENTS FOR KIDNEY DISORDERS” (BAYER PHARMA AKTIENGESELLSCHAFT, priority 2013, published 2016)
